Results from ChEMBL document CHEMBL1201862, “PubChem BioAssay data set” (2004).
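48-hour exposure; five concentrations; linearly interpolated endpoints. Abbreviation: GI50, concentration required for 50% inhibition of growth.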 Active and inactive are the calls of the source. No stated cut-off is given here; in the data, active = GI50 up to about 1.1 µM and inactive = higher.

Tests used:
Experiment in all cases: NCI tumour cell line growth inhibition, 48 h
CCRF-CEM = test system: CCRF-CEM
Malme-3M = test system: Malme-3M
SNB-19 = test system: SNB-19
HOP-62 = test system: HOP-62
EKVX = test system: EKVX
SF-268 = test system: SF-268
SK-MEL-2 = test system: SK-MEL-2
OVCAR-8 = test system: OVCAR-8
SK-OV-3 = test system: SK-OV-3
OVCAR-3 = test system: OVCAR-3
786-0 = test system: 786-0
SNB-75 = test system: SNB-75
M14 = test system: M14
NCI-H522 = test system: NCI-H522
OVCAR-4 = test system: OVCAR-4
HL-60 = test system: HL-60
HT-29 = test system: HT-29
NCI-H460 = test system: NCI-H460
CAKI-1 = test system: CAKI-1
NCI/ADR-RES = test system: NCI/ADR-RES
MOLT-4 = test system: MOLT-4
MDA-MB-435 = test system: MDA-MB-435
BT-549 = test system: BT-549
ACHN = test system: ACHN
HOP-92 = test system: HOP-92
PC-3 = test system: PC-3
SN12C = test system: SN12C
SF-539 = test system: SF-539
SF-295 = test system: SF-295
DU-145 = test system: DU-145
MCF7 = test system: MCF7
UACC-62 = test system: UACC-62
MDA-N = test system: MDA-N
Hs-578T = test system: Hs-578T
UO-31 = test system: UO-31
HCT-116 = test system: HCT-116
SW-620 = test system: SW-620
K562 = test system: K562
LOX IMVI = test system: LOX IMVI
SK-MEL-28 = test system: SK-MEL-28
TK-10 = test system: TK-10
HCC 2998 = test system: HCC 2998
NCI-H226 = test system: NCI-H226
T47D = test system: T47D
COLO 205 = test system: COLO 205
U-251 = test system: U-251
SK-MEL-5 = test system: SK-MEL-5
A549 = test system: A549
UACC-257 = test system: UACC-257
OVCAR-5 = test system: OVCAR-5
MDA-MB-231 = test system: MDA-MB-231
IGROV-1 = test system: IGROV-1
NCI-H23 = test system: NCI-H23
RPMI-8226 = test system: RPMI-8226
KM12 = test system: KM12
SR = test system: SR
A498 = test system: A498
HCT-15 = test system: HCT-15
RXF 393 = test system: RXF 393

COc1cc(C(O)c2ccc3c(c2)OCO3)cc(OC)c1OC (stereo unspecified)
GI50 (CCRF-CEM): > 100 µM (inactive) | GI50 (Malme-3M): > 100 µM (inactive) | GI50 (SNB-19): > 100 µM (inactive) | GI50 (HOP-62): > 100 µM (inactive) | GI50 (EKVX): > 100 µM (inactive) | GI50 (SF-268): > 100 µM (inactive) | GI50 (SK-MEL-2): > 100 µM (inactive) | GI50 (OVCAR-8): > 100 µM (inactive) | GI50 (SK-OV-3): > 100 µM (inactive) | GI50 (OVCAR-3): > 100 µM (inactive) | GI50 (786-0): > 100 µM (inactive) | GI50 (SNB-75): 73.5 µM (inactive) | GI50 (M14): > 100 µM (inactive) | GI50 (NCI-H522): > 100 µM (inactive) | GI50 (OVCAR-4): > 100 µM (inactive) | GI50 (HL-60): > 100 µM (inactive) | GI50 (HT-29): > 100 µM (inactive) | GI50 (NCI-H460): > 100 µM (inactive) | GI50 (CAKI-1): > 100 µM (inactive) | GI50 (NCI/ADR-RES): > 100 µM (inactive) | GI50 (MOLT-4): > 100 µM (inactive) | GI50 (MDA-MB-435): 70 µM (inactive) | GI50 (BT-549): > 100 µM (inactive) | GI50 (ACHN): > 100 µM (inactive) | GI50 (HOP-92): > 100 µM (inactive) | GI50 (PC-3): > 100 µM (inactive) | GI50 (SN12C): > 100 µM (inactive) | GI50 (SF-539): > 100 µM (inactive) | GI50 (SF-295): > 100 µM (inactive) | GI50 (DU-145): > 100 µM (inactive) | GI50 (MCF7): > 100 µM (inactive) | GI50 (UACC-62): > 100 µM (inactive) | GI50 (MDA-N): > 100 µM (inactive) | GI50 (Hs-578T): > 100 µM (inactive) | GI50 (UO-31): 61.2 µM (inactive) | GI50 (HCT-116): > 100 µM (inactive) | GI50 (SW-620): > 100 µM (inactive) | GI50 (K562): > 100 µM (inactive) | GI50 (LOX IMVI): > 100 µM (inactive) | GI50 (SK-MEL-28): > 100 µM (inactive) | GI50 (TK-10): > 100 µM (inactive) | GI50 (HCC 2998): > 100 µM (inactive) | GI50 (NCI-H226): > 100 µM (inactive) | GI50 (T47D): 37.1 µM (inactive) | GI50 (COLO 205): > 100 µM (inactive) | GI50 (U-251): > 100 µM (inactive) | GI50 (SK-MEL-5): 80.2 µM (inactive) | GI50 (A549): > 100 µM (inactive) | GI50 (UACC-257): > 100 µM (inactive) | GI50 (OVCAR-5): > 100 µM (inactive) | GI50 (MDA-MB-231): > 100 µM (inactive) | GI50 (IGROV-1): > 100 µM (inactive) | GI50 (NCI-H23): > 100 µM (inactive) | GI50 (RPMI-8226): > 100 µM (inactive) | GI50 (KM12): > 100 µM (inactive) | GI50 (SR): > 100 µM (inactive) | GI50 (A498): > 100 µM (inactive) | GI50 (HCT-15): > 100 µM

CCCC1(N)CC(OC)OC(C)C1O (stereo unspecified)
GI50 (CCRF-CEM): > 100 µM (inactive) | GI50 (Malme-3M): > 100 µM (inactive) | GI50 (SNB-19): > 100 µM (inactive) | GI50 (HOP-62): > 100 µM (inactive) | GI50 (EKVX): > 100 µM (inactive) | GI50 (SF-268): > 100 µM (inactive) | GI50 (SK-MEL-2): > 100 µM (inactive) | GI50 (OVCAR-8): > 100 µM (inactive) | GI50 (SK-OV-3): > 100 µM (inactive) | GI50 (OVCAR-3): > 100 µM (inactive) | GI50 (786-0): > 100 µM (inactive) | GI50 (SNB-75): > 100 µM (inactive) | GI50 (M14): > 100 µM (inactive) | GI50 (NCI-H522): > 100 µM (inactive) | GI50 (HL-60): > 100 µM (inactive) | GI50 (HT-29): > 100 µM (inactive) | GI50 (NCI-H460): > 100 µM (inactive) | GI50 (CAKI-1): > 100 µM (inactive) | GI50 (NCI/ADR-RES): > 100 µM (inactive) | GI50 (MOLT-4): > 100 µM (inactive) | GI50 (MDA-MB-435): > 100 µM (inactive) | GI50 (BT-549): > 100 µM (inactive) | GI50 (ACHN): > 100 µM (inactive) | GI50 (HOP-92): > 100 µM (inactive) | GI50 (PC-3): > 100 µM (inactive) | GI50 (SN12C): > 100 µM (inactive) | GI50 (SF-539): > 100 µM (inactive) | GI50 (SF-295): > 100 µM (inactive) | GI50 (DU-145): > 100 µM (inactive) | GI50 (MCF7): > 100 µM (inactive) | GI50 (UACC-62): > 100 µM (inactive) | GI50 (MDA-N): > 100 µM (inactive) | GI50 (Hs-578T): > 100 µM (inactive) | GI50 (UO-31): > 100 µM (inactive) | GI50 (HCT-116): > 100 µM (inactive) | GI50 (SW-620): > 100 µM (inactive) | GI50 (K562): > 100 µM (inactive) | GI50 (LOX IMVI): > 100 µM (inactive) | GI50 (SK-MEL-28): > 100 µM (inactive) | GI50 (TK-10): > 100 µM (inactive) | GI50 (HCC 2998): > 100 µM (inactive) | GI50 (NCI-H226): > 100 µM (inactive) | GI50 (RXF 393): > 100 µM (inactive) | GI50 (T47D): > 100 µM (inactive) | GI50 (COLO 205): > 100 µM (inactive) | GI50 (U-251): > 100 µM (inactive) | GI50 (SK-MEL-5): > 100 µM (inactive) | GI50 (A549): > 100 µM (inactive) | GI50 (UACC-257): > 100 µM (inactive) | GI50 (OVCAR-5): > 100 µM (inactive) | GI50 (MDA-MB-231): > 100 µM (inactive) | GI50 (IGROV-1): > 100 µM (inactive) | GI50 (NCI-H23): > 100 µM (inactive) | GI50 (RPMI-8226): > 100 µM (inactive) | GI50 (KM12): > 100 µM (inactive) | GI50 (SR): > 100 µM (inactive) | GI50 (A498): > 100 µM (inactive) | GI50 (HCT-15): > 100 µM
